Reference: patent US10208068B2, “Macrocycles as factor XIa inhibitors” (BRISTOL-MYERS SQUIBB COMPANY, priority 2011, dated 2019)
Several values for one entry are separate records, joined by “and”; a condition that tells them apart may be missing. Equal entries are not always repeated. Where two headings read alike, the source gives them in different places.

How the values were obtained:
[1] = rcm bond, 12-membered ring

In the case of `COC(=O)Nc1ccc2c(c1)NC(=O)[C@H](C)CCC[C@H](NC(=O)OC(C)(C)C)c1nc-2cn1COCC[Si](C)(C)C`, the ring closure, yield after HPLC (from COC(=O)Nc1ccc(-c2cn(COCC[Si](C)(C)C)c([C@H](CCCC(C)C(=O)O)NC(=O)OC(C)(C)C)n2)c(N)c1, amide bond, 12-membered ring, BOP/DMAP/DIEA, DCM/DMF, 3.4 mM, 50.0 °C, 96.0 h) is reported as 22%.
For `COC(=O)Nc1ccc2c(c1)NC(=O)CC/C=C/C[C@H](NC(=O)OC(C)(C)C)c1nc-2cn1COCC[Si](C)(C)C`, the ring closure, yield after HPLC (from C=CCCC(=O)Nc1cc(NC(=O)OC)ccc1-c1cn(COCC[Si](C)(C)C)c([C@H](CC=CN)C(=O)OC(C)(C)C)n1, rcm bond, 13-membered ring) was 42%.
In the case of `COC(=O)Nc1ccc2c(c1)NC(=O)C(C)C=CC[C@H](NC(=O)OC(C)(C)C)c1cc-2cc(=O)[nH]1` (stereo partly drawn), the ring closure, yield after HPLC (from C=CC[C@H](NC(=O)OC(C)(C)C)c1cc(-c2ccc(NC(=O)OC)cc2NC(=O)C(C)C=C)cc(=O)[nH]1, rcm bond, 12-membered ring, Grubbs II (0.4 eq), microwave, DCE, 18.0 mM, 120.0 °C, 0.5 h) is reported as 19% and 35%.
For `COC(=O)Nc1ccc2c(c1)NC(=O)[C@H](C)C=CC[C@H](NC(=O)OC(C)(C)C)c1nc-2cn1COCC[Si](C)(C)C`, the ring closure, isolated yield ([1]; from C=CC[C@H](NC(=O)OC(C)(C)C)c1nc(-c2ccc(NC(=O)OC)cc2NC(=O)[C@H](C)C=C)cn1COCC[Si](C)(C)C, Grubbs II (0.4 eq)/pTsOH, DCM, 10.0 mM, 40.0 °C, 21.5 h) was 41%.
In the case of `COC(=O)Nc1ccc2c(c1)NC(=O)COCC[C@H](NC(=O)OCc1ccccc1)c1cc-2ccn1`, the ring closure, yield after HPLC (from COC(=O)Nc1ccc(-c2ccnc([C@H](CCOCC(=O)O)NC(=O)OCc3ccccc3)c2)c(N)c1, amide bond, 12-membered ring, BOP/DMAP/DIEA, DCM/DMF, 2.8 mM, 25.0 °C, 6.0 h) is reported as 27%.
For `COC(=O)Nc1ccc2c(c1)NC(=O)CCOC[C@H](NC(=O)OC(C)(C)C)c1nc-2cn1COCC[Si](C)(C)C`, the ring closure, yield after HPLC (from COC(=O)Nc1ccc(-c2cn(COCC[Si](C)(C)C)c([C@H](COCCC(=O)O)NC(=O)OC(C)(C)C)n2)c(N)c1, amide bond, 12-membered ring, BOP/DMAP/DIEA, DMF, 1.0 mM, 25.0 °C, 16.0 h) was 75%.
`COC(=O)Nc1ccc2c(c1)NC(=O)C(C)/C=C/C[C@H](NC(=O)OC(C)(C)C)c1cc-2nnc1Cl` (stereo partly drawn) showed a ring closure, isolated yield ([1]; from C=CC[C@H](NC(=O)OC(C)(C)C)c1cc(-c2ccc(NC(=O)OC)cc2NC(=O)C(C)C=C)nnc1Cl, Grubbs II (0.4 eq), 1,2-dichloroethane, 4.7 mM, 120.0 °C, 0.5 h) of 22%.
With `COC(=O)Nc1ccc2c(c1)NC(=O)CC/C=C/C[C@H](NC(=O)OC(C)(C)C)c1cc-2cc(=O)[nH]1` the ring closure, yield after HPLC (from C=CCCC(=O)Nc1cc(NC(=O)OC)ccc1-c1cc([C@H](CC=C)NC(=O)OC(C)(C)C)[nH]c(=O)c1, rcm bond, 13-membered ring, Grubbs II, microwave, DCE, 18.9 mM, 120.0 °C, 0.5 h) was 26%.
Compound `COC(=O)Nc1ccc2c(c1)NC(=O)C/C=C/C(C)[C@H](NC(=O)OC(C)(C)C)c1cc-2ccn1` (stereo partly drawn) has a ring closure, yield after HPLC (from C=CCC(=O)Nc1cc(NC(=O)OC)ccc1-c1ccnc([C@@H](NC(=O)OC(C)(C)C)C(C)C=C)c1, rcm bond, 12-membered ring, Grubbs II, toluene, 9.0 mM, 160.0 °C, 0.33 h) of 12%.
